{"source": "patent US20240279283A1", "about": "“CYCLIC PEPTIDE ANTIBIOTICS” (priority 2021, published 2024)", "assay_type_in_all_cases": "cell-based", "details_in_all_cases": "LB broth, 5×10^5 CFU/ml, 37° C., 18 hours, scored by eye", "key": {"E. coli 25922": {"test_system": "E. coli 25922", "test": "Minimum Inhibitory Concentration (MIC) determination, E. coli 25922", "parameters": "unit not given here", "how_it_was_run": "(§1)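 Peptides, diluted two-fold in LB broth from 10 mM DMSO stocks, were inoculated with 5×10^5 CFU/ml of each strain. Incubation was 18 h at 37 °C without shaking. MIC is the lowest concentration preventing visible growth, scored by eye.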"}, "E. cloacae ATCC222": {"test_system": "E. cloacae ATCC222", "test": "Minimum Inhibitory Concentration (MIC) determination, E. cloacae ATCC222", "parameters": "unit not given here", "how_it_was_run": "as §1"}, "K. pneumoniae ATCC43816": {"test_system": "K. pneumoniae ATCC43816", "test": "Minimum Inhibitory Concentration (MIC) determination, K. pneumoniae ATCC43816", "parameters": "unit not given here", "how_it_was_run": "as §1"}, "E. coli BW25113": {"test_system": "E. coli BW25113", "test": "Minimum Inhibitory Concentration (MIC) determination, E. coli BW25113", "parameters": "unit not given here", "how_it_was_run": "as §1"}, "E. coli 25922 IMP": {"test_system": "E. coli 25922 IMP", "test": "Minimum Inhibitory Concentration (MIC) determination, E. coli 25922 IMP", "how_it_was_run": "as §1"}}, "data": [{"compound": "CC[C@@H]1NC(=O)[C@H](Cc2ccccc2)NC(=O)CSC[C@@H](C(=O)NCC(N)=O)NC(=O)[C@H](Cc2cncn2C)NC(=O)[C@H](CCCNC(=N)N)NC(=O)[C@H](Cc2cnc[nH]2)NC(=O)[C@H](Cc2ccc(O)cc2)N(C)C(=O)[C@H](CCCNC(=N)N)NC(=O)[C@H](CO)NC(=O)CNC(=O)[C@H](C)NC(=O)[C@H](Cc2cccc3ccccc23)NC1=O", "note": "(stereo in doubt) [Compound 35]", "values": [{"measurement": "MIC E. coli 25922 WUXI::MIC", "setting": "E. coli 25922", "result": 100}, {"measurement": "MIC E. cloacae ATCC222 WUXI::MIC", "setting": "E. cloacae ATCC222", "result": 100}, {"measurement": "MIC K. pneumoniae ATCC43816 Wuxi::MIC", "setting": "K. pneumoniae ATCC43816", "result": 100}, {"measurement": "MIC E. coli BW25113 WUXI::MIC", "setting": "E. coli BW25113", "result": 100}, {"measurement": "MIC E. coli 25922 IMP WUXI::MIC", "setting": "E. coli 25922 IMP", "result": 3.1}]}]}
